Target: T1, amyloid β-protein 42 (Aβ42) (Homo sapiens, UniProt P05067)
T1 construct: gene APP
Assay: ThT fluorescence fibrillation assay of synthetic Aβ[…]); supported by DSC Tm shifts, CD and AFM
Assay type: biochemical

T1 sequence (P05067 672-713): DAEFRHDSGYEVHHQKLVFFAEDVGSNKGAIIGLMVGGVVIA

- IC50: 26.6 ± 1.6 µM
Structure (SMILES): COC(=O)[C@]1(C)C(OC2OC(CO)C(O)C(O)C2O)[C@@H](O)C[C@@]2(C)C1CC[C@]1(C)C2CC=C2[C@@H]3CC(C)(C)CCC3(C(=O)O)CC[C@]21C (stereo partly shown) [DA, doliroside A]

Reference: article PMC5662078, “Doliroside A from Dolichos falcata Klein suppressing amyloid β-protein 42 fibrillogenesis: An insight at molecular level” (PLoS ONE, 2017)
